Structures can show the parent of a compound that is named as a salt. Where two headings read alike, the source gives them in different places.
Assays:
[1] = molecular target: T1, human adenosine A3 receptors (Homo sapiens, UniProt P0DMS8); test: Test of adenosine A3 receptor binding ([125I]AB-MECA, transfected HEK293 cell homogenate); conditions: for inhibition at 0.1 µM: read-out: The rate of inhibition (%) 10^-7 M; for inhibition at 0.01 µM: read-out: The rate of inhibition (%) 10^-8 M
T1 construct: expressed in transfected cells; host or cells: HEK293
T1 sequence (P0DMS8 1-318): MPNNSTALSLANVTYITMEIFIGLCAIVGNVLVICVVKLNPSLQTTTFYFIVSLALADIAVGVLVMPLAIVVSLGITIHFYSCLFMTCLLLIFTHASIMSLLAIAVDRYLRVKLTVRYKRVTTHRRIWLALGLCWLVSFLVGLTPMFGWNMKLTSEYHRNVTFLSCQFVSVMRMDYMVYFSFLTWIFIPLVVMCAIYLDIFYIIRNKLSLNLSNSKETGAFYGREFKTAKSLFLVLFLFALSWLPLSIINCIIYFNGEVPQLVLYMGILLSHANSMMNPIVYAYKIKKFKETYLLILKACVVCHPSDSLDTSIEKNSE
Experimental: The transfected HEK293 cells that expressed the human adenosine A3 receptors were homogenized in 5 mM tris(hydroxymethyl)aminomethane hydrochloric acid buffer containing 5 mM magnesium chloride (pH 7.6) by a Teflon homogenizer (Iuchiseieido Corp.). The resultant suspension was centrifuged (4000×g, 20 minutes), and a 50 mM tris(hydromethyl)aminomethane/10 mM magnesium chloride/hydrochloric acid buffer (pH 7.6) (referred to as "the Tris-HCl buffer" hereinafter) was added to the precipitate to generate the cell suspension ( the protein concentration 0.25 mg/ml). To the cell suspension was added adenosine deaminase so that the concentration was 2 U/ml, and the resultant mixture was used in the following binding experiment.
The glass fiber filter was transferred to a polypropylene tube, and the radioactivity was measured by a gamma counter (Packard Corp.).
(Rate of inhibition)=(A-B)/(C-D)×100
A: Amount of binding in the presence of the test compound
B: Amount of non-specific binding
C: Amount of total binding
D: Amount of non-specific binding

[2] = tested on: compound 48/80 induced pruritic action; test: Test of inhibition of compound 48/80 induced pruritic action (scratching behavior in mice); assay type: in vivo, ddy mice; conditions: for (A) The number of scratching behavior/10 minutes: compound 48/80 0.5 mg/kg s.c., n=10; for (B) The rate of inhibition (%): number of scratching behavior relative to control group
Experimental: A group consisting of 10 ddy mice (Japanese SLC) having a body weight of […] was used in the test. After compound 5 was orally administered, 0.5 mg/kg of compound 48/80 was subcutaneously administered in a volume of 0.1 ml per 20 g. 10 minutes after administration of compound 48/80, the number of scratching behavior was measured for 10 minutes. The rate of inhibition of the group of mice administered with compound 5 relative to the number of scratching behavior of a control group was calculated, and ED50 was calculated from the rate of inhibition.

[3] = tested on: ddY mice; conditions: mouse, in vivo
Excerpt: A group consisting of three ddY mice (Japanese SLC) having a body weight of 19 to 21 g was used. One week after oral administration of compound 5, death of the mice was observed.

[4] = 10^-7 M test compound, [125I]AB-MECA 0.1 nM
[5] = 10^-8 M test compound, [125I]AB-MECA 0.1 nM

| inhibition at 0.1 µM [1, 4] | inhibition at 0.01 µM [1, 5] | SMILES | other results |
| --- | --- | --- | --- |
| – | – | CCN1C(=O)N2CCN=C2c2[nH]c(-c3ccc(Br)cc3)nc21 [Compound 1, 2-(p-Bromophenyl)-4-ethyl-1,4,7,8-tetrahydro-5H-imidazo[2,1-i]purine-5-one hydrochloride] | inhibition at 0.1 µM [1]: 97%; inhibition at 0.01 µM [1]: 88% |
| 55% | 29% | CCN1C(=O)N2CCCN=C2c2[nH]c(-c3ccc(Br)cc3)nc21 [Compound 2, 2-(p-Bromophenyl)-4-ethyl-1,4,5,7,8,9-hexahydropyrimido [2,1-i]purine-5-onehydrochloride] | – |
| – | – | CCN1C(=O)N2CC(C)N=C2c2[nH]c(-c3ccc(Br)cc3)nc21 (centres unmarked) [Compound 3, 2-(p-Bromophenyl)-4-ethyl-8-methyl-1,4,7,8-tetrahydro-5H-imidazo [2,1-i]-purine-5-one hydrochloride] | inhibition at 0.1 µM [1]: 96%; inhibition at 0.01 µM [1]: 65% |
| – | – | CCC1CN2C(=O)N(CC)c3nc(-c4ccc(Br)cc4)[nH]c3C2=N1 (centres unmarked) [Compound 4, 2-(p-Bromophenyl)-4,8-diethyl-1,4,7,8-tetrahydro-5H-imidazo[2,1-i]purine-5-one hydrochloride] | inhibition at 0.1 µM [1]: 90%; inhibition at 0.01 µM [1]: 73% |
| – | – | CCCN1C(=O)N2CCN=C2c2[nH]c(-c3ccc(Br)cc3)nc21.Cl [Compound 5, 2-(p-Bromophenyl)-4-propyl-1,4,7,8-tetrahydro-5H-imidazo [2,1-i]purine-5-one hydrochloride] | (A) The number of scratching behavior/10 minutes ([2]; 30 mg/kg p.o.): 10.70 ± 4.45 /10 minutes; (B) The rate of inhibition (%) ([2]; 30 mg/kg p.o.): 34.0%; (A) The number of scratching behavior/10 minutes ([2]; 100 mg/kg p.o.): 7.60 ± 3.12 /10 minutes; (B) The rate of inhibition (%) ([2]; 100 mg/kg p.o.): 53.1%; (A) The number of scratching behavior/10 minutes ([2]; 300 mg/kg p.o.): 6.00 ± 2.88 /10 minutes; (B) The rate of inhibition (%) ([2]; 300 mg/kg p.o.): 63.0%; ED50 ([2]; Mus musculus, po, calculated from the rate of inhibition): 96.8 mg/kg; inhibitory action on the compound 48/80 induced itching ([2]; p.o., mice): exhibited its inhibitory action; death of the mice [3]: no death was observed |
| – | 98% | CCCN1C(=O)N2CCCN=C2c2[nH]c(-c3ccc(Br)cc3)nc21 [Compound 6, hydrochloride] | – |
| – | – | CCCN1C(=O)N2CC(CC)N=C2c2[nH]c(-c3ccc(Br)cc3)nc21 (centres unmarked) [Compound 8, 2-(p-Bromophenyl)-8-ethyl-4-propyl-1,4,7,8-tetrahydro-5H-imidazo[2,1-i]purine-5-one hydrochloride] | inhibition at 0.1 µM [1]: 96% |
| 76% | 75% | CCOC(=O)/C=C/c1ccc(-c2nc3c([nH]2)C2=NCCN2C(=O)N3CC)cc1 [Compound 13, Ethyl (E)-4-(4-ethyl-1,4,7,8-tetrahydro-5H-imidazo [2,1-i]purine-5-one-2-yl)cinnamate] | – |
| 55% | 29% | CCOC(=O)/C=C/c1ccc(-c2nc3c([nH]2)C2=NCCCN2C(=O)N3CC)cc1 [Compound 14, Ethyl (E)-4-(4-ethyl-1,4,5,7,8,9-hexahydropyrimido [2,1-i]purine-5-one-2-yl)cinnamate] | – |
| 66% | 21% | CCN1C(=O)N2CCCN=C2c2[nH]c(-c3ccc(/C=C/C(=O)O)cc3)nc21 [Compound 15, (E)-4-(4-Ethyl-1,4,5,7,8,9-hexahydropyrimido [2,1-i]-purine-5-one-2-yl)cinnamic acid] | – |
| 92% | 17% | CCOC(=O)/C=C/c1ccc(-c2nc3c([nH]2)C2=NC(CC)CN2C(=O)N3CC)cc1 (centres unmarked) [Compound 16, Ethyl (E)-4-(4,8-diethyl-1,4,7,8-tetrahydro-5H-imidazo-[2,1-i]purine-5-one-2-yl)cinnamate] | – |
| 70% | 36% | CCC1CN2C(=O)N(CC)c3nc(-c4ccc(/C=C/C(=O)O)cc4)[nH]c3C2=N1 (centres unmarked) [Compound 17, (E)-4-(4,8-Diethyl-1,4,7,8-tetrahydro-5H-imidazo [2,1-i]-purine-5-one-2-yl)cinnamic acid] | – |
| – | – | CCC1CN2C(=O)N(C)c3nc(-c4ccc(Br)cc4)[nH]c3C2=N1 (centres unmarked) [Compound 25, 2-(p-Bromophenyl)-8-ethyl-4-methyl-1,4,7,8-tetrahydro-5H-imidazo[2,1-i]purine-5-one hydrochloride] | inhibition at 0.1 µM [1]: 97%; inhibition at 0.01 µM [1]: 94% |
| – | – | CCCCN1C(=O)N2CCN=C2c2[nH]c(-c3ccc(Br)cc3)nc21 [Compound 26, 2-(p-Bromophenyl)-4-n-butyl-1,4,7,8-tetrahydro-5H-imidazo[2,1-i]purine-5-one hydrochloride] | inhibition at 0.01 µM [1]: 85% |
| 120% | 84% | CCCN1C(=O)N2C[C@@H](C(C)C)N=C2c2[nH]c(-c3ccc(Br)cc3)nc21 [Compound 32, (R)-2-(p-Bromophenyl)-8-isopropyl-4-propyl-1,4,7,8-tetrahydro-5H-imidazo[2,1-i]purine-5-one] | – |
| 95% | 89% | CCCN1C(=O)N2C[C@H](C(C)C)N=C2c2[nH]c(-c3ccc(Br)cc3)nc21 [Compound 33, (S)-2-(p-Bromophenyl)-8-isopropyl-4-propyl-1,4,7,8-tetrahydro-5H-imidazo[2,1-i]purine-5-one] | – |
| 52% | 94% | CCCN1C(=O)N2C[C@@H](c3ccccc3)N=C2c2[nH]c(-c3ccc(Br)cc3)nc21 [Compound 35, (R)-2-(p-Bromophenyl)-8-phenyl-4-propyl-1,4,7,8-tetrahydro-5H-imidazo[2,1-i]-purine-5-one] | – |

From patent US6306847A, “Condensed purine derivatives” (Kyowa Hakko Kogyo Co., Ltd., priority 1996, dated 2001)
